The results in this text go back to patent US9957264B2 (Merck Sharp & Dohme Corp., priority 2013, dated 2018).

Assay [1] deals with JAK2 (recombinant purified GST-tagged catalytic domain) (Homo sapiens (Human), UniProt O60674). In words: Jak Biochemical HTRF Assay (JAK2). The note with it: [ATP] 8.5 μM. (Time-resolved FRET reads energy transfer from a long-lived donor to a nearby acceptor.)
The target of assay [2] is JAK1 (recombinant purified GST-tagged catalytic domain) (Homo sapiens (Human), UniProt P23458). The assay can be described thus: Jak Biochemical HTRF Assay (JAK1). The note with it: [ATP] 31.8 μM. In a few lines: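 Under a 120 min room-temperature, ATP-initiated reaction, peptide phosphorylation was detected by Eu-pY20/streptavidin-Dylight 650 HTRF after EDTA stop. IC50 values derive from percent inhibition curves.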
Sequence of JAK1 (recombinant purified GST-tagged catalytic domain) (P23458 875-1153): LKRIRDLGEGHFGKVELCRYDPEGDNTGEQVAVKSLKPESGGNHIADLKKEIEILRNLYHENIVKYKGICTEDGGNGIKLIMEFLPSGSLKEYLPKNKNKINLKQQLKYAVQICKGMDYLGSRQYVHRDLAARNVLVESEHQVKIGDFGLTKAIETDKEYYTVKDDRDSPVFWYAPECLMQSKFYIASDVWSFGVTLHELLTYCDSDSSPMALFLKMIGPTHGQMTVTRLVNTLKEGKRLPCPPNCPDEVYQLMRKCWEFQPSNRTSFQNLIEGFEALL

Sequence of JAK2 (recombinant purified GST-tagged catalytic domain) (O60674 849-1124): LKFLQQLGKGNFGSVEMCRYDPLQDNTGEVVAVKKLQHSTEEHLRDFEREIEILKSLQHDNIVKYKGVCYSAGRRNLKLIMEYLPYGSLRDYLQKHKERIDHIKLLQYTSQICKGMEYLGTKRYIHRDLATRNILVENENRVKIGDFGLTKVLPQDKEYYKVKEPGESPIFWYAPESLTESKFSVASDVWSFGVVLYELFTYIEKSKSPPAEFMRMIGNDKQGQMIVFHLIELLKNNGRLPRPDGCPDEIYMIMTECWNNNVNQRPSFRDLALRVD

For `CCNC(c1ccc(Nc2nn([C@@]3(CC#N)CCCC[C@H]3F)c3cc[nH]c(=O)c23)cc1)C(F)(F)F` (single isomer, unassigned) [Example 5-174, {(1R,2R)-1-[3-({4-[(1R or 1S)-1-(ethylamino)-2,2,2-trifluoroethyl]phenyl}amino)-4-oxo-4,5-dihydro-1H-pyrazolo [4,3-c]pyridin-1-yl]-2-fluorocyclohexyl} acetonitrile], the IC50 in assay [1] and in assay [2] was 60 pM throughout.

As to `CC(C)(C)OC(=O)N1CC[C@](CC#N)(n2nc(Nc3ccc4c(c3)CN(CC(F)(F)F)S4(=O)=O)c3c(=O)[nH]ccc32)[C@H](F)C1` [Example 5-24, tert-butyl (3R,4R)-4-(cyanomethyl)-4-(3-{[1,1-dioxido-2-(2,2,2-trifluoroethyl)-2,3-dihydro-1,2-benzisothiazol-5-yl]amino}-4-oxo-4,5-dihydro-1H-pyrazolo[4,3-c]pyridin-1-yl)-3-fluoropiperidine-1-carboxylate], the IC50 (in general, the concentration that inhibits the measured activity by half) turned out to be 250 pM in assay [1] and 200 pM in assay [2].

`N#CC[C@@]1(n2nc(Nc3ccccc3)c3c(=O)[nH]ccc32)CCCOC1` [Example 5-27, (S)-2-(3-(4-oxo-3-(phenylamino)-4,5-dihydro-1H-pyrazolo[4,3-c]pyridin-1-yl)tetrahydro-2H-pyran-3-yl)acetonitrile]: the IC50 worked out at 2810 pM in assay [1] and 220 pM in assay [2].

As to `N#CCC1(n2nc(Nc3ccc([C@@H](O)C(F)(F)F)cc3)c3c(=O)[nH]ccc32)CCN(c2cc(C(F)(F)F)ccn2)CC1` (single isomer, unassigned) [Example 16-2, (R or S)-2-(4-(4-oxo-3-(4-(2,2,2-trifluoro-1-hydroxyethyl)phenylamino)-4,5-dihydropyrazolo[4,3-c]pyridin-1-yl)-1-(4-(trifluoromethyl)pyridin-2-yl)piperidin-4-yl)acetonitrile], the IC50 in assay [1] is 4810 pM; in assay [2] it was 1140 pM.

For `CC(C)(C)OC(=O)N1CCC(CC#N)(n2nc(Nc3ccc([C@@]4(C(F)(F)F)CCCN4)cc3)c3c(=O)[nH]ccc32)CC1` (single isomer, unassigned) [Example 21-18, (R or S)-tert-butyl 4-(cyanomethyl)-4-(4-oxo-3-(4-(2-(trifluoromethyl)pyrrolidin-2-yl)phenylamino)-4,5-dihydropyrazolo[4,3-c]pyridin-1-yl)piperidine-1-carboxylate], the half-maximal inhibitory concentration (IC50) in assay [1] was 500 pM; in assay [2], 550 pM.

Consider `CN(C)S(=O)(=O)c1ccc(Nc2nn(C3(CC#N)CCN(Cc4ccc(C(F)(F)F)cc4)CC3)c3cc[nH]c(=O)c23)cc1` [Example 8-3, 4-[(1-{4-(cyanomethyl)-1-[4-(trifluoromethyl)benzyl]piperidin-4-yl}-4-oxo-4,5-dihydro-1H-pyrazolo[4,3-c]pyridin-3-yl)amino]-N,N-dimethylbenzenesulfonamide], for which the IC50 is 8620 pM in assay [1] and 2320 pM in assay [2].

For `CC(C)(C)OC(=O)[C@@H]1CC[C@@](CC#N)(n2nc(Nc3ccc(C(O)C(F)(F)F)cc3)c3c(=O)[nH]ccc32)CO1` (single isomer, unassigned) [Example 5-169, (2S,5S)-tert-butyl 5-(cyanomethyl)-5-(4-oxo-3-((4-((S or R)-2,2,2-trifluoro-1-hydroxyethyl)phenyl)amino)-4,5-dihydro-1H-pyrazolo [4,3-c]pyridin-1-yl)tetrahydro-2H-pyran-2-carboxylate], the IC50 in assay [1] came to 410 pM; in assay [2] it was 100 pM.

For the compound `Cc1cc(Nc2nn(C3(CC#N)CCN(C(=O)OC(C)(C)C)CC3)c3cc[nH]c(=O)c23)ccc1C(=O)N1C2CCC1COC2` [Example 21-13, tert-butyl 4-(cyanomethyl)-4-{3-[(5-methyl-4-{3-oxa-8-azabicyclo[3.2.1]octan-8-ylcarbonyl}cyclohexa-1,3,5-trien-1-yl)amino]-4-oxo-5H-pyrazolo[4,3-c]pyridin-1-yl}piperidine-1-carboxylate], the IC50 in assay [1] turned out to be 200 pM; in assay [2], 270 pM.

As to `CSC(C)C(=O)N1CCC(CC#N)(n2nc(Nc3ccc(S(=O)(=O)N(C)C)cc3)c3c(=O)[nH]ccc32)CC1` (centres unmarked) [Example 9-24, 4-((1-(4-(cyanomethyl)-1-(2-(methylthio)propanoyl)piperidin-4-yl)-4-oxo-4,5-dihydro-1H-pyrazolo[4,3-c]pyridin-3-yl)amino)-N,N-dimethylbenzenesulfonamide], the IC50 in assay [1] was 360 pM; in assay [2], 140 pM.

With `CC(C)NC(c1ccc(Nc2nn([C@]3(CC#N)CC[C@@H](C(=O)OC(C)(C)C)OC3)c3cc[nH]c(=O)c23)cc1)C(F)(F)F` (single isomer, unassigned) [Example 5-210, (2S,5S)-tert-butyl 5-(cyanomethyl)-5-(4-oxo-3-((4-((R or S)-2,2,2-trifluoro-1-(isopropylamino)ethyl)phenyl)amino)-4,5-dihydro-1H-pyrazolo[4,3-c]pyridin-1-yl)tetrahydro-2H-pyran-2-carboxylate], the IC50 in assay [1] was 510 pM; in assay [2] it was 410 pM.
